Common to all, as to format: functional, Cricetulus griseus
Test [1] relates to Cricetinae gen. sp. Description: Compound was tested for percent reduction of liver cholesterol esters absorption in cholesterol fed hamster model at a dose of 3 mg/kg/day.
The subject of test [2] is Cricetinae gen. sp. Description: Compound was tested for percent reduction of serum cholesterol absorption in cholesterol fed hamster model at a dose of 3 mg/kg/day.
The test system of test [3] is Cricetinae gen. sp. Description: Dose required to inhibit cholesterol absorption in cholesterol fed hamster model.

Molecules are shown by their SMILES.

For `COC(=O)[C@H]1O[C@@H](Oc2ccc([C@@H]3[C@@H](CC[C@H](OC(C)=O)c4ccc(F)cc4)C(=O)N3c3ccc(F)cc3)cc2)[C@H](OC(C)=O)[C@@H](OC(C)=O)[C@@H]1OC(C)=O`, the Reduction in test [1] is recorded as -96%; in test [2], -53%. In test [3], this compound returned an ED50 of 0.09 mg/kg/day.

Take `CC(=O)OC[C@H]1O[C@@H](Oc2ccc([C@@H]3[C@@H](CC[C@H](OC(C)=O)c4ccc(F)cc4)C(=O)N3c3ccc(F)cc3)cc2)[C@H](OC(C)=O)[C@@H](OC(C)=O)[C@@H]1OC(C)=O`: the Reduction in test [1] is given as -58%; in test [2], -14%.

Regarding `CC(=O)OC[C@H]1O[C@@H](O[C@H]2[C@H](OC(C)=O)[C@@H](OC(C)=O)[C@H](Oc3ccc([C@@H]4[C@@H](CC[C@H](OC(C)=O)c5ccc(F)cc5)C(=O)N4c4ccc(F)cc4)cc3)O[C@@H]2COC(C)=O)[C@H](OC(C)=O)[C@@H](OC(C)=O)[C@@H]1OC(C)=O`, the Reduction is recorded as -75% in test [1] and -43% in test [2].

As to `O=C1[C@H](CC[C@H](O)c2ccc(F)cc2)[C@@H](c2ccc(O[C@@H]3O[C@H](CO)[C@@H](O[C@@H]4O[C@H](CO)[C@@H](O)[C@H](O)[C@H]4O)[C@H](O)[C@H]3O)cc2)N1c1ccc(F)cc1`, the values for the Reduction in test [1] and in test [2] were -90% and -36%, respectively. The same compound had a 50% effective dose (ED50) in test [3] of 0.01 mg/kg/day.

Take `O=C1[C@H](CC[C@H](O)c2ccc(F)cc2)[C@@H](c2ccc(O[C@@H]3O[C@H](CO)[C@@H](O)[C@H](O)[C@H]3O)cc2)N1c1ccc(F)cc1`: the Reduction in test [1] is reported as -92%; in test [2] it was -48%. Besides, the median effective dose (ED50) in test [3] turned out to be 0.08 mg/kg/day.

The compound `COc1ccc([C@@H]2[C@@H](CCCc3ccccc3)C(=O)N2c2ccc(OC)cc2)cc1` [SCH-48461] yielded an ED50 in test [3] of 2 mg/kg/day.

`COC(=O)[C@H]1O[C@@H](Oc2ccc([C@@H]3[C@@H](CC[C@H](O)c4ccc(F)cc4)C(=O)N3c3ccc(F)cc3)cc2)[C@H](O)[C@@H](O)[C@@H]1O`: the figures for the Reduction in test [1] and in test [2] were -89% and -48%, respectively. In test [3], this compound displayed a median effective dose (ED50) of 0.04 mg/kg/day.

Take `O=C(O)[C@H]1O[C@@H](Oc2ccc([C@@H]3[C@@H](CC[C@H](O)c4ccc(F)cc4)C(=O)N3c3ccc(F)cc3)cc2)[C@H](O)[C@@H](O)[C@@H]1O`: the Reduction in test [1] is reported as -95%; in test [2] it was -50%. For the same compound, the 50% effect level in test [3] (ED50) was put at a dose of 0.17 mg/kg/day.

Turning to `O=C1[C@H](CC[C@H](O)c2ccc(F)cc2)[C@@H](c2ccc(O)cc2)N1c1ccc(F)cc1` [EZETIMIBE], the Reduction is -93% in test [1] and -43% in test [2]. Moreover, in test [3], the 50% effective dose (ED50) turned out to be 0.04 mg/kg/day.

The record behind these values is ChEMBL document CHEMBL1130740, “Sugar-substituted 2-azetidinone cholesterol absorption inhibitors: enhanced potency by modification of the sugar” (1998).
